According to US5147876A, “2,6-di,2,4,6-, 2,5,6-tri and 2,4,5,6-tetra-substituted pyrimidines, their pharmaceutically acceptable salts, pharmaceutical compositions containing same and their use in the treatment of neurological diseases” (Mitsui Petrochemical Industries, Ltd., priority 1988, dated 1992):

Experiments:
[1] = test system: NS-20Y (mouse neuroblastoma cells); assay: Activity on NS-20Y cells: appearance of neurites; format: cell-based
Outline: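 Mouse neuroblastoma NS-20Y cells were grown in polyornithine-coated dishes in DMEM with 10 % FCS, 100 units/ml penicillin G sodium and 100 micrograms/ml streptomycin sulfate, at 37° C under 5 % carbon dioxide, and exposed to compound. Cells were fixed with 4 % glutaraldehyde, stained with 0.05 % methylene blue, and the fraction bearing neurites at least twice the cell's long diameter was counted microscopically.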

Acute toxicity on mice = format: in vivo; settings: mouse, in vivo, ip, 24 hours after administration; read-out: Estimated LD50
Procedure: The acute toxicity of the compounds of the invention was examined by the following method.
Male ddy-strain 5-week old mice, 4-6- per group, were used as experimental animals. Each of the compounds was intraperitoneally (i.p.), and the toxicity of the compound was assessed 24 hours after the administration.

[2] = test system: neuro-2a (mouse neuroblastoma cells); assay: Action on neuro-2a: proportion of cells containing outgrown neurites; format: cell-based; settings: mean ± S.D.
Outline: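 Read-out is the percentage of neurite-bearing cells (neurite ≥2× long cell diameter), counted microscopically over more than 200 cells per well. Before fixation and staining, neuro-2a cells (1,000/well, DMEM + 10% FCS) were cultured for one day at 37 °C; up to six compound concentrations, three runs each.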

Structure (SMILES)	Number of cells in which neurites appeared/total number of cells ([1]; 24 hours, 0.025 mM)	Number of cells in which neurites appeared/total number of cells ([1]; 48 hours, 0.01 mM)	Number of cells in which neurites appeared/total number of cells ([1]; 48 hours, 0.025 mM)	LD50 at 24 h (Acute toxicity on mice)	Number of cells having neurites with a length at least two times the diameter of each cell/total number of cells ([2]; 0.03 mM)	Number of cells having neurites with a length at least two times the diameter of each cell/total number of cells ([2]; 0.1 mM)	Number of cells having neurites with a length at least two times the diameter of each cell/total number of cells ([2]; 0.3 mM)	Number of cells having neurites with a length at least two times the diameter of each cell/total number of cells ([2]; 1 mM)	Number of cells in which neurites appeared/total number of cells ([1]; 24 hours, 0.4 mM)	Number of cells in which neurites appeared/total number of cells ([1]; 48 hours, 0.4 mM)	Number of cells in which neurites appeared/total number of cells ([1]; 24 hours, 0.02 mM)	Number of cells in which neurites appeared/total number of cells ([1]; 24 hours, 0.1 mM)	Number of cells in which neurites appeared/total number of cells ([1]; 48 hours, 0.1 mM)	Number of cells having neurites with a length at least two times the diameter of each cell/total number of cells ([2]; 0.01 mM)	Number of cells having neurites with a length at least two times the diameter of each cell/total number of cells ([2]; 3 mM)	Number of cells in which neurites appeared/total number of cells ([1]; 48 hours, 0.05 mM)	Number of cells in which neurites appeared/total number of cells ([1]; 48 hours, 0.02 mM)	Number of cells in which neurites appeared/total number of cells ([1]; 24 hours, 0.2 mM)
CCCCN(CCCC)c1nccc(N(C)C(=O)c2ccccc2)n1 [Compound 112]	4/51	4/49	9/50	> 1000 mg/kg	4.8 ± 0.1%	18.6 ± 5.2%	2.6 ± 0.6%	7.6 ± 4.9%	–	–	–	–	–	–	–	–	–	–
Cc1cnc(N2CCC(c3ccccc3)CC2)nc1N(C)C(=O)c1ccccc1 [Compound 424]	–	–	–	> 1000 mg/kg	4.5 ± 1.4%	7.6 ± 1.3%	–	–	16/50	3/50	–	–	–	–	–	–	–	–
CNc1cc(C)nc(N2CCC(c3ccccc3)CC2)n1 [Compound 1090]	–	–	–	500 to 1000 mg/kg	5.7 ± 0.6%	12.2 ± 2.5%	10.3 ± 0.9%	–	–	–	4/50	21/50	3/50	3.7 ± 1.0%	–	–	–	–
CN(C(=O)c1ccccc1)c1ccnc(N2CCC(Cc3ccccc3)CC2)n1 [Compound 304]	–	3/50	–	> 1000 mg/kg	–	38.1 ± 1.6%	15.3 ± 6.3%	–	–	–	–	40/50	–	–	–	–	–	–
CN(C(=O)c1ccc([N+](=O)[O-])cc1)c1ccnc(N2CCC(c3ccccc3)CC2)n1 [Compound 264]	–	–	–	500 to 1000 mg/kg	–	5.2 ± 3.1%	8.7 ± 1.6%	15.2 ± 3.2%	8/48	4/50	–	–	–	–	7.2 ± 1.8%	–	–	–
CN(C(=O)c1ccccc1)c1ccnc(N2CCN(Cc3ccccc3)CC2)n1 [Compound 368]	–	–	–	500 to 1000 mg/kg	3.5 ± 0.5%	9.0 ± 1.8%	–	–	–	–	–	14/50	5/50	–	–	8/51	–	–
CCN(C(=O)c1ccccc1)c1ccnc(N2CCC(c3ccccc3)CC2)n1 [Compound 176]	–	–	–	> 1000 mg/kg	5.3 ± 1.9%	3.2 ± 3.1%	–	–	–	–	–	8/50	–	–	–	–	2/50	–
COc1cc(C(=O)N(C)c2ccnc(N3CCC(c4ccccc4)CC3)n2)cc(OC)c1OC [Compound 280]	–	–	–	500 to 1000 mg/kg	4.5 ± 1.2%	17.2 ± 1.3%	13.4 ± 3.5%	17.4 ± 2.6%	–	–	–	–	8/53	–	–	–	–	3/50
